Experiments:
[1] = molecular target: rCYP 3A4 (Homo sapiens, UniProt P08684); test: rCYP450 inhibition, 3A4; assay type: in vitro ADME; design: concentration or dose not given beside the values
Method: Further evaluations were performed for some of the LSF analogs in MDS assays, solubility, oral bioavailability, and stability (see Table 1). Analogs having greater than 50% inhibitory activity were considered to have high activity; analogs having from 20-49% inhibitory activity were considered to have medium activity; and analogs having less than 20 inhibitory activity were considered to have low activity

[2] = tested on: human islets; test: Intracellular ATP concentrations (mitochondrial function) in human islets; assay type: cell-based; conditions: human β-cells
Method: Four compounds (CPW7, CPW8, CPW11, and CPW12) were also evaluated on human islets for the induction of insulin secretion, intracellular ATP concentrations and the effect of reducing cell death exposed to cytokines (combination of human IL-1β, IFN-γ, and TNF-α). The results are illustrated FIGS. 7A-7D.

[3] = tested on: INS-1 cells; test: Protection of INS-1 cells from cytokine-induced cell death; assay type: cell-based, rat
Method: The effects of LSF analogs on β-cells in the […] insulin-secreting INS-1 cell line were investigated. Cells were maintained in RPMI 1640 medium (Life Technologies, Inc., Gaithersburg, Md.) supplemented with 10% heat-inactivated FBS, 10 mm HEPES, 200 μm L-glutamine, 1 mm sodium pyruvate, […] 2-mercaptoethanol, 50 U/ml penicillin, and 50 μg/ml streptomycin at pH 7.4. The cells were cultured at 37° C. in a humidified incubator supplied with 5% carbon dioxide. Fresh medium was replaced every 2 days. The cells were plated at a density of […]. Culture vessels were coated with poly-D-lysine and gelatin (Sigma, St. Louis, Mo.) to retain detached and dead cells so that seeding cell numbers reflect the actual cell numbers after all treatment conditions. INS-1 cells were treated with the combination of recombinant mouse IL-1β (5 ng/ml), IFNγ (100 ng/ml), and TNFα (10 ng/ml; R&D Systems, Inc., Minneapolis, Minn.) suspended in complete RPMI medium. LSF (provided by Cell Therapeutics, Inc., Seattle, Wash.) and analogs were added simultaneously with the cytokines in complete RPMI medium. All treatments were performed for 18 hours.
INS-1 cells were treated with a combination of recombinant IL-1β, INFγ, and TNFα with 10^−5-10^3 μM LSF and its analogs. […] There was no further increase in β-cell protection when the LSF concentration was increased from 10^−2 to 10^2 μM. […] No further increases in β-cell protection were observed when analog concentrations were increased.
The effects of LSF analogs on insulin secretion in INS-1 cells with and without inflammatory cytokines. β-Cells were treated with apoptosis detecting dye for 2-3 hours at room temperature. Apoptotic cells were recognized with purple-red color under a microscope. After washing to eliminate free dye and adding dye release reagent, color density was quantified by reading at OD 450 nm. […] Insulin secreted into the supernatant was measured by RIA with mouse insulin as a standard. […]

Chain of rCYP 3A4 (P08684 whole entry): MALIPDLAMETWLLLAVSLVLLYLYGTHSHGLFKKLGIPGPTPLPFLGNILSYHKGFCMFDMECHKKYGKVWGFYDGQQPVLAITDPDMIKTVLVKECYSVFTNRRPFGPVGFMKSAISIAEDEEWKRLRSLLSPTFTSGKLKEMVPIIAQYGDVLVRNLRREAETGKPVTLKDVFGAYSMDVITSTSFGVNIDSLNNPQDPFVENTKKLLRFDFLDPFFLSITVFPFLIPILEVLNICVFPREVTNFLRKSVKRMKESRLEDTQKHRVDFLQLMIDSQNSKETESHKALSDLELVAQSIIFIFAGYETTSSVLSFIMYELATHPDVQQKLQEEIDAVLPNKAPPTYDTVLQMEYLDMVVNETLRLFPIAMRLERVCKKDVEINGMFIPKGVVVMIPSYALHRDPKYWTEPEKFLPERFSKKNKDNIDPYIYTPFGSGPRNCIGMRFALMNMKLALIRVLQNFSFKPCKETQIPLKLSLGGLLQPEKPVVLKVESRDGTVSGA

Q: Which “rCYP % Inhibition 3A4” value [1] does the source give for `C[C@@H](O)CCCCOc1n[nH]c(=O)c2ccccc12` [CPW12] here?
A: 4%

Q: And the maintaining mitochondrial function [2]?
A: beneficial effect

Q: What about the “β-cell protective activity compared with LSF” value ([3]; concentration of 10^−2 μM) of the same molecule?
A: comparative activity with LSF

Q: And the “protective effects on β-cells” value ([3]; cytokine-induced cell death)?
A: effective at low concentrations
